Data published in patent US9896479B2, “Functionalized naphthalene fluorophores” (Kay M. Brummond, priority 2012, dated 2018).
Each block holds one compound with its values, some of them ahead of it.

Columns and labels:
Type in all cases: physicochemical
[1] = Fluorescence emission spectra (emission maxima, Stokes and bathochromic shifts); details: for Bathochromic shift: across Toluene, CH2Cl2, DMSO (Table 3)
Excerpt: (§1) All commercially available compounds were purchased from Aldrich Chemical Co., GFS Chemicals, Strem Chemicals, Acros Organics, Alfa Aesar, and Advanced Chemtech and used as received, except for p-toluenesulfonyl hydrazide, which was recrystallized from methanol. Amines were purchased from Aldrich Chemical Co. as purified by redistillation and used as received. Tetrahydrofuran (THF), diethyl ether (Et2O), and dichloromethane (CH2Cl2) were purified by passing through alumina using the Sol-Tek ST-002 solvent purification system. Acetonitrile (MeCN) and toluene were freshly distilled from CaH2 prior to use. Benzene was freshly distilled from sodium/benzophenone prior to use Anhydrous N,N-dimethylformamide (DMF), 1,2-dichloroethane (DCE), and 1,4-dioxane were purchased and used as received from Aldrich Chemical Co. Purification of the compounds by flash column chromatography was performed using silica gel (32-63 μm particle size, 60 Å pore size) purchased from Silicycle, or by using a Biotage Horizon flash purification system with either Biotage SNAP KP-SIL silica cartridges, or Teledyne ISCO RediSep Rf normal phase disposable flash columns (40-60 micron). TLC analyses were performed on EMD Chemicals Silica Gel 60 F254 glass plates (250 μm thickness). ^1H NMR and ^13C NMR spectra were recorded on Bruker Avance 300 MHz, 500 MHz, or 600 MHz spectrometers. Spectra were referenced to residual chloroform (7.27 ppm, ^1H, 77.0 ppm, ^13C) or 1,2-dichlorobenzene (6.93 ppm, ^1H, 127.19 ppm, ^13C). Chemical shifts are reported in ppm, multiplicities are indicated by s (singlet), d (doublet), t (triplet), q (quartet), p (pentet), and m (multiplet). Coupling constants, J, are reported in hertz (Hz). All NMR spectra were obtained at room temperature unless otherwise specified. IR spectra were obtained using a Nicolet Avatar E.S.P. 360 FT-IR. EI mass spectroscopy was performed on a Waters Micromass GCT high resolution mass spectrometer. ES mass spectroscopy was performed on a Waters Q-TOF Ultima API, Micromass UK Limited high resolution mass spectrometer. GC mass spectrometry was performed on a Shimadzu GCMS-17A/QP5050A spectrometer. All microwave-mediated reactions were carried out using a Biotage Initiator™ Exp microwave synthesizer. The microwave parameters were set to variable power, constant temperature, with the fixed hold time set to on. The microwave reactions were carried out in 0.2-0.5 mL, 0.5-2 mL, 2-5 mL, or 10-20 mL Biotage microwave vials. […] Absorption and fluorescence spectra were recorded on Lambda 9 spectrophotometer (Perkin Elmer) and FluoroMax-3 spectrofluorometer (Jobin Yvon, Horiba), respectively. Fluorescence quantum yields were determined by taking Prodan in DMSO (quantum yield, QY=91%) as a reference. The quantum yield values were corrected for the solvent refractive index. For spectroscopic measurements, 10^−5 M solutions of dyes in 10 mm quartz-cuvettes were used (excitation wavelength was 334 nm; slits open to 2 nm).

[2] = Absorption spectra (absorption maxima) of dyes in organic solvents
Excerpt: as §1

[3] = Fluorescence quantum yield vs Prodan in DMSO as reference; details: for QY (fluorescence quantum yield vs Prodan in DMSO (91%)): excitation 334 nm, 10^-5 M
Excerpt: as §1

Stokes shift ([1]; in DCM): 207 nm
emission maximum ([1]; in dichloromethane (DCM)): 531 nm
absorption maximum ([2]; in DCM): 324 nm
Compound: 1-(6-(Dimethylamino)-2,3-dihydro-1H-cyclopenta[b]naphthalen-4-yl)ethanone [Compound 10]

Compound: 1-(8-(dimethylamino)-2,3-dihydro-1H-cyclopenta[b]naphthalen-4-yl)ethanone [Compound 12]
absorption and emission maxima compared with fluorophore 102a ([1]; in DCM): comparable to those observed for fluorophore 102a

emission maximum ([1]; in dichloromethane (DCM)): 567 nm
Compound: CC(=O)c1c2c(cc3c(N(C)C)cccc13)CC(CO)(CO)C2 [7a]

SS (Stokes shift) ([1]; CH2Cl2 (Table 3)): 210 nm
λem (emission maxima) ([1]; CH2Cl2 (Table 3)): 530 nm
SS (Stokes shift) ([1]; DMSO (Table 3)): 241 nm
λem (emission maxima) ([1]; DMSO (Table 3)): 561 nm
SS (Stokes shift) ([1]; Toluene (Table 3)): 175 nm
λem (emission maxima) ([1]; Toluene (Table 3)): 493 nm
Bathochromic shift [1]: 68 nm
λabs (absorption maxima) ([2]; CH2Cl2 (Table 3)): 320 nm
λabs (absorption maxima) ([2]; DMSO (Table 3)): 320 nm
λabs (absorption maxima) ([2]; Toluene (Table 3)): 318 nm
Compound: CN(C)c1cccc2c(C(=O)C(C)(C)C)c3c(cc12)CC(CO)(CO)C3 [7b]

SS (Stokes shift) ([1]; CH2Cl2 (Table 3)): 110 nm
λem (emission maxima) ([1]; CH2Cl2 (Table 3)): 537 nm
SS (Stokes shift) ([1]; DMSO (Table 3)): 147 nm
λem (emission maxima) ([1]; DMSO (Table 3)): 574 nm
SS (Stokes shift) ([1]; Toluene (Table 3)): 80 nm
λem (emission maxima) ([1]; Toluene (Table 3)): 504 nm
Bathochromic shift [1]: 70 nm
λabs (absorption maxima) ([2]; CH2Cl2 (Table 3)): 427 nm
λabs (absorption maxima) ([2]; DMSO (Table 3)): 427 nm
λabs (absorption maxima) ([2]; Toluene (Table 3)): 424 nm
Compound: CN(C)c1ccc2cc3c(c(-c4ccc(CO)cc4)c2c1)C(=O)CC3 [15b]

emission maximum ([1]; in dichloromethane (DCM)): 566 nm
Compound: CC(=O)c1c2c(cc3ccccc13)CCC2 [Compound 6a, 1-(2,3-Dihydro-1H-cyclopenta[b]naphthalen-4-yl)ethanone]

emission maximum ([1]; in dichloromethane (DCM)): 527 nm
Compound: CC(=O)c1c2c(cc3ccc(Cl)cc13)CCC2 [Compound 6b, 1-(6-Chloro-2,3-dihydro-1H-cyclopenta[b]naphthalen-4-yl)ethanone]

emission maximum ([1]; in dichloromethane (DCM)): 564 nm
Compound: CC(=O)c1c2c(cc3c(Cl)cccc13)CCC2 [Compound 6c, 1-(8-Chloro-2,3-dihydro-1H-cyclopenta[b]naphthalen-4-yl)ethanone]

Compound: CC(=O)c1c2c(cc3cc(Cl)ccc13)CCC2 [Compound 6d, 1-(7-chloro-2,3-dihydro-1H-cyclopenta[b]naphthalen-4-yl)ethanone]
emission maximum ([1]; in dichloromethane (DCM)): 581 nm

λem (maximum emission) ([1]; 1,4-Dioxane): 495 nm
λem (maximum emission) ([1]; Acetonitrile): 529 nm
λem (maximum emission) ([1]; CH2Cl2): 510 nm
λem (maximum emission) ([1]; CHCl3): 516 nm
λem (maximum emission) ([1]; Cyclohexane): 466 nm
λem (maximum emission) ([1]; DMSO): 536 nm
λem (maximum emission) ([1]; EtOH): 578 nm
λem (maximum emission) ([1]; THF): 497 nm
λem (maximum emission) ([1]; Toluene): 490 nm
emission maximum ([1]; in methylene chloride): ~510 nm
QY (fluorescence quantum yield vs Prodan in DMSO (91%)) ([3]; 1,4-Dioxane): 46%
QY (fluorescence quantum yield vs Prodan in DMSO (91%)) ([3]; Acetonitrile): 99%
QY (fluorescence quantum yield vs Prodan in DMSO (91%)) ([3]; CH2Cl2): 99%
QY (fluorescence quantum yield vs Prodan in DMSO (91%)) ([3]; CHCl3): 77%
QY (fluorescence quantum yield vs Prodan in DMSO (91%)) ([3]; Cyclohexane): 45%
QY (fluorescence quantum yield vs Prodan in DMSO (91%)) ([3]; DMSO): 85%
QY (fluorescence quantum yield vs Prodan in DMSO (91%)) ([3]; EtOH): 5%
QY (fluorescence quantum yield vs Prodan in DMSO (91%)) ([3]; THF): 75%
QY (fluorescence quantum yield vs Prodan in DMSO (91%)) ([3]; Toluene): 62%
quantum yield ([3]; in dichloroethane): 99%
λabs (maximum absorption) ([2]; 1,4-Dioxane): 376 nm
λabs (maximum absorption) ([2]; Acetonitrile): 375 nm
λabs (maximum absorption) ([2]; CH2Cl2): 377 nm
λabs (maximum absorption) ([2]; CHCl3): 377 nm
λabs (maximum absorption) ([2]; Cyclohexane): 373 nm
λabs (maximum absorption) ([2]; DMSO): 377 nm
λabs (maximum absorption) ([2]; EtOH): 377 nm
λabs (maximum absorption) ([2]; THF): 377 nm
λabs (maximum absorption) ([2]; Toluene): 376 nm
absorption maxima ([2]; dichloroethane): 377 nm
absorption maximum ([2]; in methylene chloride): ~375 nm
Compound: CC(=O)c1c2c(cc3ccc(N(C)C)cc13)CCC2 [Compound 10, 1-(6-(Dimethylamino)-2,3-dihydro-1H-cyclopenta[b]naphthalen-4-yl)ethanone]

Compound: CC(=O)c1c2c(cc3cc(N(C)C)ccc13)CCC2 [Compound 11, 1-(7-(dimethylamino)-2,3-dihydro-1H-cyclopenta[b]naphthalen-4-yl)ethanone]
λem (maximum emission) ([1]; Acetonitrile): 545 nm
λem (maximum emission) ([1]; CH2Cl2): 509 nm
λem (maximum emission) ([1]; CHCl3): 514 nm
λem (maximum emission) ([1]; Cyclohexane): 445 nm
λem (maximum emission) ([1]; DMSO): 558 nm
λem (maximum emission) ([1]; EtOH): 605 nm
λem (maximum emission) ([1]; THF): 505 nm
λem (maximum emission) ([1]; Toluene): 481 nm
emission maximum ([1]; in methylene chloride): ~510 nm
QY (fluorescence quantum yield vs Prodan in DMSO (91%)) ([3]; Acetonitrile): 18%
QY (fluorescence quantum yield vs Prodan in DMSO (91%)) ([3]; CH2Cl2): 82%
QY (fluorescence quantum yield vs Prodan in DMSO (91%)) ([3]; CHCl3): 41%
QY (fluorescence quantum yield vs Prodan in DMSO (91%)) ([3]; Cyclohexane): 8%
QY (fluorescence quantum yield vs Prodan in DMSO (91%)) ([3]; DMSO): 37%
QY (fluorescence quantum yield vs Prodan in DMSO (91%)) ([3]; EtOH): 3%
QY (fluorescence quantum yield vs Prodan in DMSO (91%)) ([3]; THF): 34%
QY (fluorescence quantum yield vs Prodan in DMSO (91%)) ([3]; Toluene): 25%
λabs (maximum absorption) ([2]; Acetonitrile): 370 nm
λabs (maximum absorption) ([2]; CH2Cl2): 372 nm
λabs (maximum absorption) ([2]; CHCl3): 373 nm
λabs (maximum absorption) ([2]; Cyclohexane): 363 nm
λabs (maximum absorption) ([2]; DMSO): 374 nm
λabs (maximum absorption) ([2]; EtOH): 374 nm
λabs (maximum absorption) ([2]; THF): 370 nm
λabs (maximum absorption) ([2]; Toluene): 368 nm
absorption maximum ([2]; in methylene chloride): ~375 nm

λem (maximum emission) ([1]; 1,4-Dioxane): 534 nm
λem (maximum emission) ([1]; Acetonitrile): 590 nm
λem (maximum emission) ([1]; CH2Cl2): 562 nm
λem (maximum emission) ([1]; CHCl3): 562 nm
λem (maximum emission) ([1]; Cyclohexane): 480 nm
λem (maximum emission) ([1]; DMSO): 598 nm
λem (maximum emission) ([1]; EtOH): 634 nm
λem (maximum emission) ([1]; THF): 543 nm
λem (maximum emission) ([1]; Toluene): 520 nm
emission maximum ([1]; in methylene chloride): 562 nm
QY (fluorescence quantum yield vs Prodan in DMSO (91%)) ([3]; 1,4-Dioxane): 44%
QY (fluorescence quantum yield vs Prodan in DMSO (91%)) ([3]; Acetonitrile): 23%
QY (fluorescence quantum yield vs Prodan in DMSO (91%)) ([3]; CH2Cl2): 60%
QY (fluorescence quantum yield vs Prodan in DMSO (91%)) ([3]; CHCl3): 40%
QY (fluorescence quantum yield vs Prodan in DMSO (91%)) ([3]; Cyclohexane): 28%
QY (fluorescence quantum yield vs Prodan in DMSO (91%)) ([3]; DMSO): 48%
QY (fluorescence quantum yield vs Prodan in DMSO (91%)) ([3]; THF): 39%
QY (fluorescence quantum yield vs Prodan in DMSO (91%)) ([3]; Toluene): 47%
λabs (maximum absorption) ([2]; 1,4-Dioxane): 319 nm
λabs (maximum absorption) ([2]; Acetonitrile): 316 nm
λabs (maximum absorption) ([2]; CH2Cl2): 334 nm
λabs (maximum absorption) ([2]; CHCl3): 334 nm
λabs (maximum absorption) ([2]; Cyclohexane): 314 nm
λabs (maximum absorption) ([2]; DMSO): 334 nm
λabs (maximum absorption) ([2]; EtOH): 334 nm
λabs (maximum absorption) ([2]; THF): 330 nm
λabs (maximum absorption) ([2]; Toluene): 322 nm
absorption maximum ([2]; in methylene chloride): 332 nm
Compound: CC(=O)c1c2c(cc3c(N(C)C)cccc13)CCC2 [Compound 12, 1-(8-(dimethylamino)-2,3-dihydro-1H-cyclopenta[b]naphthalen-4-yl)ethanone]

SS (Stokes shift) ([1]; CH2Cl2 (Table 3)): 243 nm
λem (emission maxima) ([1]; CH2Cl2 (Table 3)): 568 nm
SS (Stokes shift) ([1]; DMSO (Table 3)): 271 nm
λem (emission maxima) ([1]; DMSO (Table 3)): 598 nm
SS (Stokes shift) ([1]; Toluene (Table 3)): 206 nm
λem (emission maxima) ([1]; Toluene (Table 3)): 526 nm
Bathochromic shift [1]: 72 nm
λabs (absorption maxima) ([2]; CH2Cl2 (Table 3)): 325 nm
λabs (absorption maxima) ([2]; DMSO (Table 3)): 327 nm
λabs (absorption maxima) ([2]; Toluene (Table 3)): 320 nm
Compound: CC(=O)c1c2c(cc3ccc(N4CCCC4)cc13)CCC2 [Compound 13, 1-(6-(pyrrolidin-1-yl)-2,3-dihydro-1H-cyclopenta[b]naphthalen-4-yl)ethanone]
absorption and emission maxima compared with fluorophore 102a ([1]; in DCM): comparable to those observed for fluorophore 102a
